Data: patent publication EP0165492B1, “Process for manufacturing preparations promoting wound healing, and such preparations” (BERLIN-CHEMIE Aktiengesellschaft, priority 1984, dated 1992)

Tests used:
Kapillaren = settings: conclusion from morphometry (Tables 11 and 12); controls = 100 %
Text: Mit Hilfe des Punktzählverfahrens (BUNTROCK et al: Exper. Pathol. 21 (1982) 62-67) wurden die prozentualen Volumenanteile der Kapillaren (VVCAP), unterteilt nach Endothelzellen (VVEC), Endothelzellkerne (VVNEC), Endothelsellzytoplasma (VVCYT) einerseits und Kapillarlumen (VVCAPL) andererseits bestimmt. Die Kontrollen wurden wiederum mit 100 % festgelegt.
Die Ergebnisse sind in der Tabelle 12 dargestellt.

Endothelzellen = settings: versus rats treated with isotonic saline (= 100 %); treatment as in Example 1
Method: Unter die Rückenhaut von 2 Monate alten Ratten mit einem Körpergewicht von 220 bis 270 g werden Polyvinylringe mit einem Basisdurchmesser von 19 mm unter sterilen Kautelen implantiert (Test nach RUDAS, modifiziert nach BECK, WIEGERS-HAUSEN und JUNG, Acta bio. med. Germ. 13, (1964)).
Der Ring liegt auf der Fascis der Rückenmuskulatur. Am Operationstag werden je 1,0 ml sterile, isotone Kochsalzlösung (Kontrolle) bzw. die gleiche Menge an Kochsalzlösung mit den darin enthaltenen Wirkstoffen appliziert. Die Wunde der Rückenhaut über dem Ring wird danach verschlossen. Am 2. bzw. am 2., 4. und 6. Tag post operationem (p. op.) erfolgen nochmalige Injektionen durch die Haut in den Ring, wobei jeweils 0,2 ml sterile, isotone Kochsalzlösung mit jeweils 20 % der am Operationstag gegebenen Wirkstoffmenge appliziert werden. Im Fall der Kontrolle erfolgt eine Injektion von 0,2 ml Kochsalzlösung ohne Wirkstoff.
Als Kontrolltiere dienten mit isotoner Kochsalzlösung behandelte Ratten, deren Zählwerte gleich 100 % gesetzt wurden. […] Das Vorgehen der Behandlung entspricht dem Beispiel 1.

[1] = tested on: experimentell gesetzte Wunden; settings: intraperitoneal, 20 mg/kg Ratte; cited from earlier work
[2] = tested on: durch Zahnextraktion entstandene Wunden; settings: local application (Salbe, Lutschtabletten); cited from earlier work

## N-4-Nitrobenzylocarbonyl-lysyl-Prolin-Hydrochlorid [Lys[Z(NO2)]-Pro·HCl]
Kapillaren
  Angiogenese fördernde Wirkung: Angiogenese fördernde Wirkung
Endothelzellen
  Anzahl der Endothelzellkerne der Kapillaren: signifikante Zunahme

## ß-Alanyl-L-Histidin [L-Carnosin]
[1]
  Wundheilung: günstig beeinflussen
[2]
  Wundheilung: günstig beeinflussen
